Measurements from patent US5420276A, “Analogs of oxetanyl purines and pyrimidines” (Abbott Laboratories, priority 1993, dated 1995).
Converted amounts (≈) assume the structure as drawn. Read-outs that look alike come from different tables or passages of the source.

What was measured:
[1] = MTT test compound cytotoxicity in human foreskin fibroblasts; format: cell-based; conditions: hff cells, read-out: MTT assay (Percent of control)
Method: (§1) For the plaque reduction assay, sixth to twelfth passage human foreskin fibroblasts were seeded in wells of 12-well tissue culture plates and incubated at 37° C. in a humidified atmosphere containing 2% CO2 in air. Subconfluent HFF were rinsed with MEM and exposed to 0.5 ml/well of a suspension of VZV diluted in MEM+2% FBS for 2 hours at 37° C. Following the virus adsorption period, the inocula were removed and the infected cell layers were rinsed with MEM. Triplicate VZV-infected cell culture wells were treated with 1.0 ml of each concentration of test compound (in MEM+2% FBS). Six untreated virus-infected cell cultures and triplicate untreated uninfected cell cultures were fed with 1.0 ml of MEM+2% FBS to serve as controls. Wells containing uninfected HFF were treated with each concentration of test compound to monitor the test compound cytotoxicity. The 12-well plates were incubated at 37° C. in the CO2 incubator. At 48 hours post-virus infection (p.i.), fluids in all plate wells were replaced with fresh test compound and/or culture medium.
The test compound cytotoxicity control cultures were examined microscopically for gross morphologic changes, then treated with MTT and 30% SDS. The blue color of the MTT formazan was measured spectrophotometrically at 570 nm. Test compound cytotoxicity was determined by comparing the absorbance (O.D.) of each test compound control with the mean O.D. of the cell control cultures and expressed as percent of control.

[2] = tested on: Herpes simplex type 1 (HSV-1) strain E-377; assay: CPE-inhibition assay, herpes simplex type 1 strain E-377 in Vero cells; format: cell-based, herpes simplex virus type 1; conditions: for VR (Virus Rating): HSV-1 (E-377); for IC50: Human alphaherpesvirus 1, HSV-1 (E-377), minimum drug concentration that inhibited the CPE by 50%, read-out: ID50 (the source's name)
Method: The challenge viruses were propagated and assayed in cells that were pregrown as monolayer cultures in plastic tissue culture flasks and 96-well plates, using cell culture media appropriate for the host cell cultures. The following viruses and host cell cultures were employed:
green monkey kidney (Vero)
On the day of use, a weighed sample of each compound to be evaluated was dissolved and diluted in serial 10^0.5 dilutions in the culture medium appropriate for each virus-host cell system.
(§2) Mammalian cells were pregrown as monolayers in wells of COSTAR 96-well tissue culture plates using suitable cell culture media. Stock viruses were pretitered according to the method of Reed and Muench (Amer. J. Hyg. 27:493-497, 1938) and diluted in cell culture medium to yield 32 CCID50 (cell culture infectious dose, 50%) units per 0.1 ml. Antiviral assays were designed to test seven concentrations of each compound, from cytotoxic to noncytotoxic levels, in triplicate against each of the challenge viruses in microtiter plate wells containing suitable cell monolayers. To each of the replicate cell cultures were added 0.1 ml of the test drug solution and 0.1 ml of virus suspension. Cell controls containing medium alone, virus controls containing medium and virus, and drug cytotoxicity controls containing medium and each drug concentration were run simultaneously with the test samples assayed in each experiment. […] The cell monolayers were examined microscopically for virus-induced CPE and for drug cytotoxicity.
(§3) Antiviral activity was determined by calculating the degree of inhibition of virus-induced CPE in drug-treated, virus-infected cell cultures by means of a virus rating (VR). The VR is a standard weighted measurement of antiviral activity taking into account both the degree of CPE inhibition and drug cytotoxicity, and is determined by a modification of the method of Ehrlich et al. (Ann. N.Y. Acad. Sci. 130: 5-16, 1965) as described below. CPE was graded for each individual culture in each microtiter plate well according to the following scale:
4=100% of the cells affected by virus;
3=75% of the cells affected by virus;
2=50% of the cells affected by virus;
1=25% of the cells affected by virus;
0=No CPE; normal cell monolayer.
The VR was calculated as 0.1 of the sum of the numerical differences between the recorded CPE grade of each test well and that of the corresponding virus control in the culture plate. Numerical differences between the scores of test wells containing a drug concentration which was partially cytotoxic (p) and their corresponding virus controls were halved.
(§4) The minimum inhibitory drug concentration which reduced the cytopathogenic effect (CPE) by 50% (MIC50) was calculated by using a regression analysis program for semilog curve fitting. A therapeutic index (TI) for each active compound for each susceptible virus was determined by dividing the minimum cytotoxic concentration of the test compound by the MIC50.

[3] = tested on: Varicella-Zoster Virus (VZV) clinical isolate DM625; assay: VZV plaque reduction assay; format: cell-based; conditions: Human alphaherpesvirus 3, 144 h, VZV in HFF; for EC50: minimum concentration required to inhibit plaque formation by 50%, read-out: MIC50
Method: The compounds of the invention were evaluated for selective activity against varicella zoster virus (VCV) utilizing a plaque reduction assay procedure. The challenge virus was a clinical isolate designated DM625, obtained from Dr. Richard Whitley of the University of Alabama Hospitals, Birmingham, Ala. The virus had been passaged and titrated in cultures of human foreskin fibroblasts (HFF).
as §1
Six days p.i., the VZV plaques were counted (unstained, low magnification).The effect of each concentration of test compound on plaque formation was determined by comparing the mean number of plaques in the replicate test compound-treated cultures with the mean plaque counts of the untreated virus control cultures.
The MIC50 value is the minimum concentration of test Compound required to inhibit plaque formation by 50%.

[4] = Drug cytotoxicity in Vero cells (microscopic, CPE-inhibition assay); format: cell-based; conditions: african green monkey, minimum drug concentration causing any cytotoxicity, read-out: MTC
Method: as §2, §3, §4

IC50 [2] [µg/mL] | EC50 [3] [µg/mL] | Structure (SMILES) | viability at 0.1 µM [1] [%] | viability at 0.32 µM [1] [%] | viability at 1 µM [1] [%] | viability at 3.2 µM [1] [%] | VR (Virus Rating) [2] | inhibition at 0.032 µM [3] [%] | inhibition at 0.1 µM [3] [%] | inhibition at 0.32 µM [3] [%] | inhibition at 1 µM [3] [%] | inhibition at 3.2 µM [3] [%] | MCC ([4]; HSV-1 (E-377)) [µg/mL] | MCC ([4]; HSV-2 (MS)) [µg/mL] | other results
0.8 (≈ 3.52 µM) | 0.07 (≈ 0.308 µM) | Nc1ccn([C@@H]2O[C@H](CO)[C@H]2CO)c(=O)n1 [Example 22, 1-([2'R,3'R,4'S]-3',4'-Bis(hydroxymethyl)-2'-oxetanyl)cytosine] | 88 | 81 | 77 | 76 | 2.65 | 29 | 86 | 100 | 100 | 100 | 10 | 10 | –
307 (≈ 1340 µM) | 19.4 (≈ 85 µM) | O=c1ccn([C@@H]2O[C@H](CO)[C@H]2CO)c(=O)[nH]1 [Example 23, 1-([2'R,3'R,4'S]-3',4'-Bis(hydroxymethyl)-2'-oxetanyl)uracil] | – | – | – | 82 | 0.6 | – | – | – | 22 | 22 | 320 | 320 | viability at 10 µM ([1]; 10 μM): 84%; viability at 32 µM ([1]; 32 μM): 87%; viability at 100 µM ([1]; 100 μM): 88%; viability at 320 µM ([1]; 320 μM): 82%; inhibition at 10 µM ([3]; 10 μM): 34%; inhibition at 32 µM ([3]; 32 μM): 84%; inhibition at 100 µM ([3]; 100 μM): 100%; inhibition at 320 µM ([3]; 320 μM): 100%
– | 0.0032 (≈ 0.00961 µM) | O=c1[nH]c(=O)n([C@@H]2O[C@H](CO)[C@H]2CO)cc1C=CBr [Example 44, 1-([2'R, 3'R, 4'S]-3',4'-Bis(hydroxymethyl)-2'-oxetanyl)-5-(2-bromo-1-vinyl)uracil] | 92 | 92 | 100 | 100 | – | 97 | 98 | 99 | 99 | 100 | – | – | viability at 0.0001 µM ([1]; 0.0001 μM): 99%; viability at 0.00032 µM ([1]; 0.00032 μM): 98%; viability at 0.001 µM ([1]; 0.001 μM): 93%; viability at 0.0032 µM ([1]; 0.0032 μM): 100%; viability at 0.01 µM ([1]; 0.01 μM): 97%; viability at 0.032 µM ([1]; 0.032 μM): 94%; inhibition at 0.0001 µM ([3]; 0.0001 μM): 3%; inhibition at 0.00032 µM ([3]; 0.00032 μM): 6%; inhibition at 0.001 µM ([3]; 0.001 μM): 4%; inhibition at 0.0032 µM ([3]; 0.0032 μM): 16%; inhibition at 0.01 µM ([3]; 0.01 μM): 54%
